Data taken from patent US20120004282A1, “RNA Interference Mediated Inhibition of the Intercellular Adhesion Molecule 1 (ICAM-1) Gene Expression Using Short Interfering Nucleic Acid (siNA)” (Merck Sharp & Dohme Corp,, priority 2009, published 2012).
[invAb] = inverted abasic unit; m = 2'-O-methyl; r = 2'-OH (RNA); f = 2'-fluoro

Experiments:
[1] = test system: human ICAM-2 mRNA transcript; assay: ICAM-2 mRNA specificity screen in human cells (Taqman RT-PCR); assay type: cell-based; details: mean ± S.D., three independent experiments
Procedure: Calu-1 (human; ATCC cat# HTB-54): Cells were cultured at 37° C. in the presence of 5% CO2 and grown in McCoy's 5a medium supplemented with fetal bovine serum at a final concentration of 10% and 100 μg/mL of streptomycin and 100 U/mL penicillin.
Calu-1 cells were plated in all wells of a tissue-culture treated, 96-well plate at final counts of 5,000 cells/well in 100 μL of appropriate culture media. Cells were cultured for 24 hours after plating at 37° C. in the presence of 5% CO2.
After 24 hours, complexes containing siNA and RNAiMax were created as follows. A solution of RNAiMax diluted 33-fold in OPTI-MEM was prepared. In parallel, solutions of the siNAs for testing were prepared to a final concentration of 120 nM in OPTI-MEM. After incubation of RNAiMax/OPTI-MEM solution at room temperature for 5 min, an equal volume of the siNA solution and the RNAiMax solution were added together for each of the siNAs. […] This solution was incubated at room temperature for 20 minutes. After incubation, 20 uL of the solution was added to each of the relevant wells. The final concentration of siNA in each well was 10 nM and the final volume of RNAiMax in each well was 0.3 uL.
A series of probes and primers were used to detect the various mRNA transcripts of the genes of ICAM-1 and ICAM-2 in human cell lines (see Table 2). All the Taqman probes and primers for the experiments here-in described were supplied as pre-validated sets by Applied Biosystems, Inc., (see Table 2). The assays were performed on an ABI 7900 instrument, according to the manufacturer's instructions.
A TaqMan Gene Expression Master Mix (provided in the Cells-to-CT™, Applied Biosystems, Cat # 4399002) was used. The PCR reactions were carried out at 50° C. for 2 min, 95° C. for 20 min followed by 40 cycles at 95° C. for 15 secs and 60° C. for 1 min.
The expression level of the gene of interest and % knock-down was calculated using Comparative Ct method: […]
The non-targeting control siNA was, unless otherwise indicated, chosen as the value against which to calculate the % knock-down, because it is the most relevant control.
The specificity the six siNAs in Table 4 was also assessed. The siNAs were tested at 1 nM concentration to determine the effect of the ICAM-1 siNAs on the mRNA transcript of human ICAM-2.

ICAM-1 protein = assay: In situ ICAM-1 ELISA for surface ICAM-1 in INF-γ/TNF-α stimulated Calu-1 cells; assay type: cell-based, human; details: relative to UC3
Procedure: In a 96-well plate, 5,000 Calu-1 cells/well were seeded in 100 uL of complete growth media and incubated overnight at 37 C with 5% CO2. The cells were transfected with siNAs using RNAiMax (Invitrogen, Cat# 13778-150); final concentrations of siRNAs are 10 nM-0.0000097 nM. The amount of RNAiMax in each well is 0.3 uL. The siNAs were incubated for 6 hours. The medium was replaced with 95 uL of fresh complete growth medium and add 5 uL/well of INF-γ/TNF-α at 10 ng/ml final concentration. The cells were incubated for 24, 48, and 72 hours.
In situ ELISA for surface ICAM-1 was performed as follows. The cells were washed ×2 in PBS. The wells were pre-blocked with Super Block buffer (Pierce, Cat # 37535) for 1.5 hours at 37° C. The cells were washed ×3 with PBS. The primary monoclonal antibody (Abcam, clone MEM-111, Cat ab2213) was diluted at 1 in 3000 in Super Block buffer. 50 μl of primary antibody was added per well. The wells were shook gently at RT for 1 hour. The cells were washed ×3 with PBS. The rabbit polyclonal secondary antibody (Abcam, Cat ab6728)was diluted 1:1000 in Super Block buffer. 50 μl secondary antibody were added per well. The mixture was incubated at 37° C. for 1 hour. The cells were washed ×3 with PBS. 50 μl of TMB solution (Sigma, Cat# T-8665) was added per well and incubated in the dark for 10 minutes. 50 μl Stop solution was added. The absorbance was read at 450 nm.
The effects of siNAs on ICAM-1 protein level were compared to each other and to the effect of the universal control using a multiple comparison ANOVA test to obtain a 95% confidence interval.
Various siNAs were also evaluated for their potential to knock-down ICAM-1 protein using an ELISA assay. Six siNAs were tested in an ICAM-1 ELISA assay across a range of concentrations of siNAs. The absorbance of each sample was normalized to the average absorbance obtained from the wells that were not stimulated with INF-γ/TNF-α (n=6). These wells served as a background control (see Table 6).

OAS1 mRNA [2] = assay: Endosomal TLR3 mediated immunostimulation, OAS1 mRNA increase in NHBE cells; assay type: cell-based, human; details: Up to 100 nM, siNA formulated with delivery vehicle
Procedure: (§1) A series of probes and primers were used for the detection of mRNA transcripts of ICAM-1, OAS1, and GAPDH (as control/normalisation) in the human cell lines. The assays were performed on an ABI 7900HT instrument according to the manufacturer's instructions.
(§2) With TaqMan data, critical threshold values (Ct) were converted to copy numbers corresponding to the particular gene analysed in each well of the 384 well plate. Six identical wells were prepared in each plate for a given treatment. […] Determination of the percentage coefficient of variation (CV) (% C.V.=[standard deviation/average]*100) allowed the omitting of wells whose value was an outlier (so that % C.V.<25). Relative abundance (aka relative expression) of a gene was determined by dividing the mean copy number of that gene with its GAPDH counterpart in that particular sample.
(§3) Calu-1 or NHBE cell were treated as above in Example 2 and used for the measurement of endosomal TLR3 mediated immunostimulation, with the inclusion of polyI:C as a positive control for OAS1 mRNA upregulation. For the measurement of membrane bound TLR3 mediated immunostimulation the Calu 1 cells were cultured at 12000 cells/per 96 well and siNAs administered in PBS in the absence of a delivery vehicle at a concentration of 100 nM, 30 nM, 10 nM, 3 nM, 1 nM, and 0.3 nM.
The endosomal TLR3 mediated immunostimulation was also measured by recording the percent increase in OAS1 mRNA levels when the NHBE cells were transfected with the siNAs that had been formulated with the delivery vehicle (the Gemini surfactant GSC170 Dab—example 37 in WO03/82809) (percent increase in OAS1 mRNA levels relative to the Gemini delivery vehicle control). The TLR3 agonist Poly I: C is used as a positive control for OAS1 mRNA induction.

OAS1 mRNA [3] = assay: Membrane and endosomal TLR3 mediated immunostimulation, OAS1 mRNA increase in Calu 1 cells; assay type: cell-based, human; details: Up to 100 nM
Procedure: Human lung epithelial carcinoma (Calu-1) cells were grown at 37 degrees in the presence of 5% CO2 and cultured in […] supplemented with 10% fetal bovine serum, glutamine and antibiotics.
as §1, §2, §3

29284-DC: siNA duplex, ICAM-1 target site 1141 (h); sense B cucAGucAGuGuGAccGcA TTB; antisense UGCGGucAcAcuGAcuGAGUU (sense CUCAGUCAGUGUGACCGCATT; antisense UGCGGUCACACUGACUGAGUU; sense: DNA at AGT, 2'-fluoro at CU, [invAb] at 5' end, 3' end, backbone not given here; antisense: sugars from the 5' end rrrmmffmfmffmmffmmmmm, backbone not given here)
% KD ICAM-2 1 nM [1]: 6 ± 11% | ICAM-1 Protein % KD 24 h, 10 nM (ICAM-1 protein): 64% | ICAM-1 Protein % KD 48 h, 10 nM (ICAM-1 protein): 53% | ICAM-1 Protein % KD 72 h, 10 nM (ICAM-1 protein): 44% | Endosomal TLR3 mediated Immunostimulation OAS1 mRNA increase NHBE cells n = 3donors (OAS1 mRNA [2]): No significant effect | Membrane & Endosomal TLR3 mediated Immunostimulation OAS1 mRNA increase Calu 1 Cells (OAS1 mRNA [3]): No significant effect

29288-DC: siNA duplex, ICAM-1 target site 2046 (h); sense B cAuuGuccucAGucAGAuA TTB; antisense UAUcuGAcuGAGGAcAAuGUU (sense CAUUGUCCUCAGUCAGAUATT; antisense UAUCUGACUGAGGACAAUGUU; sense: DNA at AGT, 2'-fluoro at CU, [invAb] at 5' end, 3' end, backbone not given here; antisense: sugars from the 5' end rrrffmmffmmmmrfmmfmmm, backbone not given here)
% KD ICAM-2 1 nM [1]: −9 ± 18% | ICAM-1 Protein % KD 24 h, 10 nM (ICAM-1 protein): 52% | ICAM-1 Protein % KD 48 h, 10 nM (ICAM-1 protein): 52% | ICAM-1 Protein % KD 72 h, 10 nM (ICAM-1 protein): 47% | Endosomal TLR3 mediated Immunostimulation OAS1 mRNA increase NHBE cells n = 3donors (OAS1 mRNA [2]): No significant effect | Membrane & Endosomal TLR3 mediated Immunostimulation OAS1 mRNA increase Calu 1 Cells (OAS1 mRNA [3]): No significant effect

29285-DC: siNA duplex, ICAM-1 target site 537 (h); sense B GGAAcAAccGGAAGGuGuA TTB; antisense UACAccuuccGGuuGuuccUU (sense GGAACAACCGGAAGGUGUATT; antisense UACACCUUCCGGUUGUUCCUU; sense: DNA at AGT, 2'-fluoro at CU, [invAb] at 5' end, 3' end, backbone not given here; antisense: sugars from the 5' end rrrmffffffmmffmffffmm, backbone not given here)
% KD ICAM-2 1 nM [1]: 11 ± 7% | ICAM-1 Protein % KD 24 h, 10 nM (ICAM-1 protein): 59% | ICAM-1 Protein % KD 48 h, 10 nM (ICAM-1 protein): 52% | ICAM-1 Protein % KD 72 h, 10 nM (ICAM-1 protein): 36% | Endosomal TLR3 mediated Immunostimulation OAS1 mRNA increase NHBE cells n = 3donors (OAS1 mRNA [2]): No significant effect | Membrane & Endosomal TLR3 mediated Immunostimulation OAS1 mRNA increase Calu 1 Cells (OAS1 mRNA [3]): No significant effect

29286-DC: siNA duplex, ICAM-1 target site 1838 (h); sense B cGGAAGAucAAGAAAuAcA TTB; antisense UGUAuuucuuGAucuuccGUU (sense CGGAAGAUCAAGAAAUACATT; antisense UGUAUUUCUUGAUCUUCCGUU; sense: DNA at AGT, 2'-fluoro at CU, [invAb] at 5' end, 3' end, backbone not given here; antisense: sugars from the 5' end rrrmffffffmmffffffmmm, backbone not given here)
% KD ICAM-2 1 nM [1]: −3 ± 14% | ICAM-1 Protein % KD 24 h, 10 nM (ICAM-1 protein): 59% | ICAM-1 Protein % KD 48 h, 10 nM (ICAM-1 protein): 54% | ICAM-1 Protein % KD 72 h, 10 nM (ICAM-1 protein): 43% | Endosomal TLR3 mediated Immunostimulation OAS1 mRNA increase NHBE cells n = 3donors (OAS1 mRNA [2]): No significant effect | Membrane & Endosomal TLR3 mediated Immunostimulation OAS1 mRNA increase Calu 1 Cells (OAS1 mRNA [3]): No significant effect

48722-DC: siNA duplex, ICAM-1 target site 2240 (h); sense B GAcAuAcAAcuGGGAAAuA TTB; antisense UAUuucccAGuuGuAuGucUU (sense GACAUACAACUGGGAAAUATT; antisense UAUUUCCCAGUUGUAUGUCUU; sense: DNA at AGT, 2'-fluoro at CU, [invAb] at 5' end, 3' end, backbone not given here; antisense: sugars from the 5' end rrrfffffmmffmfmfmffmm, backbone not given here)
% KD ICAM-2 1 nM [1]: −15 ± 29% | ICAM-1 Protein % KD 24 h, 10 nM (ICAM-1 protein): 71% | ICAM-1 Protein % KD 48 h, 10 nM (ICAM-1 protein): 53% | ICAM-1 Protein % KD 72 h, 10 nM (ICAM-1 protein): 43% | Endosomal TLR3 mediated Immunostimulation OAS1 mRNA increase NHBE cells n = 3donors (OAS1 mRNA [2]): No significant effect | Membrane & Endosomal TLR3 mediated Immunostimulation OAS1 mRNA increase Calu 1 Cells (OAS1 mRNA [3]): No significant effect

29282-DC: siNA duplex, ICAM-1 target site 2113 (h); sense B cGcAucuGAucuGuAGucA TTB; antisense UGAcuAcAGAucAGAuGcGUU (sense CGCAUCUGAUCUGUAGUCATT; antisense UGACUACAGAUCAGAUGCGUU; sense: DNA at AGT, 2'-fluoro at CU, [invAb] at 5' end, 3' end, backbone not given here; antisense: sugars from the 5' end rrrffmfmmmffmmmfmfmmm, backbone not given here)
% KD ICAM-2 1 nM [1]: 3 ± 6% | ICAM-1 Protein % KD 24 h, 10 nM (ICAM-1 protein): 87% | ICAM-1 Protein % KD 48 h, 10 nM (ICAM-1 protein): 64% | ICAM-1 Protein % KD 72 h, 10 nM (ICAM-1 protein): 61% | Endosomal TLR3 mediated Immunostimulation OAS1 mRNA increase NHBE cells n = 3donors (OAS1 mRNA [2]): No significant effect | Membrane & Endosomal TLR3 mediated Immunostimulation OAS1 mRNA increase Calu 1 Cells (OAS1 mRNA [3]): No significant effect
